# Molecular target: T1, human SGLT2 (Homo sapiens, UniProt P31639)
# T1 construct: expressed in transfected cells; host or cells: CHOK1 cells (kept under Geneticin selection)
# T1 sequence (P31639 1-672): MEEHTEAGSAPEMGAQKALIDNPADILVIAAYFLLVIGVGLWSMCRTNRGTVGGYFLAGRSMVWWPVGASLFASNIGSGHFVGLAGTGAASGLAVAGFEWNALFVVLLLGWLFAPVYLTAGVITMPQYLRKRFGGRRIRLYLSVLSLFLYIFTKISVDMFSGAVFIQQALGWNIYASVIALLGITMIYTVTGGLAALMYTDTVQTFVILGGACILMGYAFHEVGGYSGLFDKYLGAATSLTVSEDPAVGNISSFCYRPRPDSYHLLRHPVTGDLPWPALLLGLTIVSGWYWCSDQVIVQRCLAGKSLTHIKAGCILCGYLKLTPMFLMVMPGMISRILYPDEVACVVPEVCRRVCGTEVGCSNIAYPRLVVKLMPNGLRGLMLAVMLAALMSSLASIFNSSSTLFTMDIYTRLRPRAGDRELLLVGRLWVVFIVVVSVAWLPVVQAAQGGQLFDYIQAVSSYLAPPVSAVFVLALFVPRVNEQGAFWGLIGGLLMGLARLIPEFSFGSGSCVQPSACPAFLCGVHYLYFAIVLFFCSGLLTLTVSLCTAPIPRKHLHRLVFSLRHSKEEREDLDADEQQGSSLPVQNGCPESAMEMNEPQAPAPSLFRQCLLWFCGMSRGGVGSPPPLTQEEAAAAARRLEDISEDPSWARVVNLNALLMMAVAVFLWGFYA
# Assay: Assay for SGLT2 inhibition (14C-AMG uptake in CHOK1 cells expressing human SGLT2)
# Type: cell-based
# Conditions: CHOK1 cells expressing human SGLT2, 14C-AMG uptake 0.5 mM, 2 hours at 37° C.
# Protocol: 1. Assay for SGLT2 Inhibition
# Compounds described in the above examples were used for the SGLT2 inhibition assay.
# CHOK1 cells expressing human SGLT2 were seeded in 24-well plates at a density of 400,000 cells/well in F-12 nutrient mixture (Ham's F-12) containing 10% fetal bovine serum, 400 μg/ml Geneticin, 50 units/ml sodium penicillin G (Gibco-BRL) and 50 μg/ml streptomycin sulfate. After 2 days of culture at 37° C. in a humidified atmosphere containing 5% CO2, cells were washed once with the assay buffer (137 mM NaCl, 5 mM KCl, 1 mM CaCl2, 1 mM MgCl2, 50 mM Hepes, and 20 mM Tris, pH 7.4) and incubated with 250 μl of the buffer containing test compounds for 10 min at 37° C. Test compounds were dissolved in DMSO. The final concentration of DMSO was 0.5%. The transport reaction was initiated by addition of 50 μl [^14C]-methyl-α-D-glucopyranoside (^14C-AMG) solution (final concentration, 0.5 mM). After incubation for 2 hours at 37° C., the uptake was stopped by aspiration of the incubation mixture, the cells were washed three times with ice-cold PBS. Then, cells were solubilized with 0.3 N NaOH and aliquots were taken for determination of radioactivity by a liquid scintillation counter. Nonspecific AMG uptake was defined as that which occurred in the presence of 100 μM of phlorizin, a specific inhibitor of sodium-dependent glucose cotransporter. Specific uptake was normalized for the protein concentrations measured by the method of Bradford. The 50% inhibitory concentration (IC50) values were calculated from dose-response curves by least square method.
row,IC50 [µM],Structure (SMILES)
1,0.097,OC[C@H]1S[C@@H](n2cc(Cc3ccc(Br)cc3)c3c(Cl)cccc32)[C@H](O)[C@@H](O)[C@@H]1O [Example 14]
2,0.063,OC[C@H]1S[C@@H](n2cc(Cc3ccc(I)cc3)c3c(F)cccc32)[C@H](O)[C@@H](O)[C@@H]1O [Example 17]
3,0.15,OC[C@H]1S[C@@H](n2cc(Cc3ccc(-c4cccs4)cc3)c3c(F)cccc32)[C@H](O)[C@@H](O)[C@@H]1O [Example 31]
4,0.12,CCc1ccc(Cc2cn([C@@H]3O[C@H](CO)[C@@H](F)[C@H](O)[C@H]3O)c3ncccc23)cc1 [Example 36]
5,0.11,OC[C@H]1S[C@@H](n2cc(Cc3ccc(Cl)cc3)c3c(Cl)cccc32)[C@H](O)[C@@H](O)[C@@H]1O [Example 13]
6,0.054,OC[C@H]1S[C@@H](n2cc(Cc3ccc(OC(F)F)cc3)c3c(Cl)cccc32)[C@H](O)[C@@H](O)[C@@H]1O [Example 30]
7,0.046,CCOc1ccc(Cc2cn([C@@H]3S[C@H](CO)[C@@H](O)[C@H](O)[C@H]3O)c3cccc(C)c23)cc1 [Example 19]
8,0.031,"O[C@@H]1[C@@H](O)[C@H](c2ccc(Cl)c(Cc3ccc(-c4ccccc4)s3)c2)O[C@H](CF)[C@H]1O [Example 6, 4-Chloro-3-(5-phenyl-2-thienylmethyl)-1-(6-fluoro-6-deoxy-β-D-glucopyranosyl)benzene]"
9,0.19,OC[C@H]1S[C@@H](n2cc(Cc3ccc(-c4ccc(F)nc4)s3)c3c(Cl)cccc32)[C@H](O)[C@@H](O)[C@@H]1O [Example 26]
10,0.021,"CCc1ccc(Cc2cn([C@@H]3S[C@H](CO)[C@@H](O)[C@H](O)[C@H]3O)c3cccc(Cl)c23)cc1 [Example 2, 4-Chloro-3-(4-ethylphenylmethyl)-1-(5-thio-β-D-glucopyranosyl)indole]"
11,0.067,CCc1ccc(Cc2cn([C@@H]3S[C@H](CO)[C@@H](O)[C@H](O)[C@H]3O)c3cccc(Cl)c23)s1 [Example 25]
12,0.13,OC[C@H]1S[C@@H](n2cc(Cc3ccc4ccccc4c3)c3c(Cl)cccc32)[C@H](O)[C@@H](O)[C@@H]1O [Example 16]
13,0.0053,"OC[C@H]1O[C@@H](c2ccc(Cl)c(Cc3cc4ccccc4s3)c2)[C@H](O)[C@@H](O)[C@H]1F [Example 5, 3-(Benzo[b]thiophen-2-ylmethyl)-4-chloro-1-(4-fluoro-4-deoxy-β-D-galactopyranosyl)benzene]"
14,0.17,OC[C@H]1S[C@@H](n2cc(Cc3ccc(Br)s3)c3c(Cl)cccc32)[C@H](O)[C@@H](O)[C@@H]1O [Example 23]
15,0.019,Cc1cccc2c1c(Cc1ccc(C3CC3)cc1)cn2[C@@H]1S[C@H](CO)[C@@H](O)[C@H](O)[C@H]1O [Example 28]
16,0.035,OC[C@H]1S[C@@H](n2cc(Cc3ccc(C(F)F)cc3)c3c(Cl)cccc32)[C@H](O)[C@@H](O)[C@@H]1O [Example 34]
17,0.017,OC[C@H]1O[C@@H](c2ccc(Cl)c(Cc3cc4ccccc4s3)c2)[C@H](O)[C@@H](O)[C@H]1O [Example 35]
18,0.01,OC[C@H]1S[C@@H](n2cc(Cc3ccc(-c4ccccn4)s3)c3c(Cl)cccc32)[C@H](O)[C@@H](O)[C@@H]1O [Example 33]
19,0.022,CSc1ccc(Cc2cn([C@@H]3S[C@H](CO)[C@@H](O)[C@H](O)[C@H]3O)c3cccc(Cl)c23)cc1 [Example 10]
20,0.015,COc1ccc(Cc2cn([C@@H]3S[C@H](CO)[C@@H](O)[C@H](O)[C@H]3O)c3cccc(Cl)c23)cc1 [Example 15]
21,0.041,OC[C@H]1S[C@@H](n2cc(Cc3ccc4occc4c3)c3c(Cl)cccc32)[C@H](O)[C@@H](O)[C@@H]1O [Example 8]
22,0.21,N#Cc1cccc(-c2ccc(Cc3cn([C@@H]4S[C@H](CO)[C@@H](O)[C@H](O)[C@H]4O)c4cccc(Cl)c34)s2)c1 [Example 22]
23,0.18,Cc1cccc2c1c(Cc1ccc(Cl)cc1)cn2[C@@H]1S[C@H](CO)[C@@H](O)[C@H](O)[C@H]1O [Example 20]
24,0.18,"CCc1ccc(Cc2cn([C@@H]3S[C@H](CO)[C@@H](O)[C@H](O)[C@H]3O)c3ccccc23)cc1 [Example 1, 3-(4-Ethylphenylmethyl)-1-(5-thio-β-D-glucopyranosyl)indole]"
25,0.19,OC[C@H]1S[C@@H](n2cc(Cc3ccc4occc4c3)c3c(F)cccc32)[C@H](O)[C@@H](O)[C@@H]1O [Example 18]

# Tested on: male Sprague-Dawley (SD) rats
# Assay: Urinary glucose excretion test in rats
# Type: in vivo, rat
# Conditions: 30 mg/kg by oral gavage, urine collected for 24 hours, daily amount of glucose excreted per individual
# Protocol: 2. Urinary Glucose Excretion Test in Rats
# Compounds described in the above examples were used for the Urinary glucose excretion test in rats.
# 6-week-old male Sprague-Dawley (SD) rats were housed in individual metabolic cages with free access to food and water from 2 days prior to the experiment. On the morning of the experiment, rats were administered vehicle (0.2% carboxymethyl cellulose solution containing 0.2% Tween80) or test compounds (30 mg/kg) by oral gavage at a volume of 10 ml/kg. Then, urine of the rat was collected for 24 hours, and the urine volume was measured. Subsequently, the glucose concentration in urine was quantified using the enzymatic assay kit and the daily amount of glucose excreted in urine per individual was calculated.
row,Structure (SMILES),Urinary glucose
1,"CCc1ccc(Cc2cn([C@@H]3S[C@H](CO)[C@@H](O)[C@H](O)[C@H]3O)c3cccc(Cl)c23)cc1 [Example 2, 4-Chloro-3-(4-ethylphenylmethyl)-1-(5-thio-β-D-glucopyranosyl)indole]",B (2400 mg>B≧2000 mg)
2,"OC[C@H]1O[C@@H](c2ccc(Cl)c(Cc3cc4ccccc4s3)c2)[C@H](O)[C@@H](O)[C@H]1F [Example 5, 3-(Benzo[b]thiophen-2-ylmethyl)-4-chloro-1-(4-fluoro-4-deoxy-β-D-galactopyranosyl)benzene]",A (A≧2400 mg)

# Tested on: not given
# Assay: not given
# Conditions: not given
row,melting point [°C],Structure (SMILES)
1,153 to 154,"OC[C@H]1O[C@@H](c2ccc(Cl)c(Cc3cc4ccccc4s3)c2)[C@H](O)[C@@H](O)[C@H]1F [Example 5, 3-(Benzo[b]thiophen-2-ylmethyl)-4-chloro-1-(4-fluoro-4-deoxy-β-D-galactopyranosyl)benzene]"

# Tested on: diabetic animal models
# Assay: not given
# Conditions: continuous subcutaneous administration; cited from earlier work
row,Structure (SMILES),blood glucose level
1,O=C(CCc1ccc(O)cc1)c1c(O)cc(O)cc1O[C@@H]1O[C@H](CO)[C@@H](O)[C@H](O)[C@H]1O [phlorizin],normalized
